System: strain CY7284
Test: lacZ assay, Cp5766 in strain CY7284 with integrated LexAop-lacZ
Assay type: cell-based, yeast
Details: after 3 hours of treatment, data not shown
Method: In addition to transformation of the chimeric construct, the construct may also be integrated into the yeast strain. […] The lacZ assay was performed as described above.

Substance: a-factor
- increase of β-galactosidase activities: 63 fold

From US7022513B2, “Cell based signal generation” (priority 1999, dated 2006)
